Measured values: patent US10370369B2, “Acid addition salt of 3-aminoquinuclidine which does not exhibit deliquescence” (YUKI GOSEI KOGYO CO. LTD., priority 2015, dated 2019)

Test: Deliquescence Test (Experimental Example 3, salts of (S)-3-aminoquinuclidine)
Type: physicochemical
Conditions: about 0.5 g allowed to stand for 1 hour, 24 to 26° C., humidity of 75 to 78%, visual evaluation
Method: The acid addition salts (about 0.5 g) of (S)-3-aminoquinuclidine obtained in Examples 14 to 19, and Comparative Examples 18 to 19 were allowed to stand for 1 hour, under the conditions of 24 to 26° C., and a humidity of 75 to 78%, and a deliquescence was observed by a visual evaluation.

| SMILES | Deliquescence |
| --- | --- |
| N[C@@H]1CN2CCC1CC2.O=[N+]([O-])O.O=[N+]([O-])O [Comparative Example 18, (S)-3-aminoquinuclidine.dinitrate] | Gradually |
| CC(=O)O.CC(=O)O.N[C@@H]1CN2CCC1CC2 [Comparative Example 19, (S)-3-aminoquinuclidine.diacetate] | Immediately |
| N[C@@H]1CN2CCC1CC2.N[C@@H]1CN2CCC1CC2.O=P(O)(O)O.O=P(O)(O)O.O=P(O)(O)O [Example 14, (S)-3-aminoquinuclidine.sesquiphosphate] | Not deliquesce |
| N[C@@H]1CN2CCC1CC2.O=S(=O)(O)O [Example 15, (S)-3-aminoquinuclidine.monosulfate] | Not deliquesce |
| N[C@@H]1CN2CCC1CC2.O=C(O)/C=C/C(=O)O [Example 16, (S)-3-aminoquinuclidine.monofumarate] | Not deliquesce |
| N[C@@H]1CN2CCC1CC2.O=C(O)c1ccc(C(=O)O)cc1 [Example 17, (S)-3-aminoquinuclidine.monoterephthalate] | Not deliquesce |
| N[C@@H]1CN2CCC1CC2.O=C(O)C(=O)O [Example 18, (S)-3-aminoquinuclidine.monooxalate] | Not deliquesce |
| Cc1ccc(S(=O)(=O)O)cc1.N[C@@H]1CN2CCC1CC2 [Example 19, (S)-3-aminoquinuclidine.mono-p-toluenesulfonate] | Not deliquesce |
| Cl.Cl.N[C@@H]1CN2CCC1CC2 [Referential Example 4, (S)-3-aminoquinuclidine.dihydrochloride] | Immediately |

Test: Deliquescence Test (Experimental Example 2, salts of (R)-3-aminoquinuclidine)
Type: physicochemical
Conditions: about 0.5 g allowed to stand for 1 hour, 24 to 25° C., humidity of 74 to 76%, visual evaluation
Method: The acid addition salts (about 0.5 g) of (R)-3-aminoquinuclidine obtained in Examples 7 to 13, Referential Example 2, and Comparative Examples 10 to 17 were allowed to stand for 1 hour, under the conditions of 24 to 25° C. and a humidity of 74 to 76%, and a deliquescence was observed by a visual evaluation.

| SMILES | Deliquescence |
| --- | --- |
| Br.Br.N[C@H]1CN2CCC1CC2 [Comparative Example 10, (R)-3-aminoquinuclidine-dihydrobromide] | Gradually |
| N[C@H]1CN2CCC1CC2.O=[N+]([O-])O.O=[N+]([O-])O [Comparative Example 11, (R)-3-aminoquinuclidine.dinitrate] | Gradually |
| CC(=O)O.CC(=O)O.N[C@H]1CN2CCC1CC2 [Comparative Example 12, (R)-3-aminoquinuclidine.diacetate] | Immediately |
| CCC(=O)O.N[C@H]1CN2CCC1CC2 [Comparative Example 13, (R)-3-aminoquinuclidine.monopropionate] | Immediately |
| N[C@H]1CN2CCC1CC2.O=C(O)c1ccccc1.O=C(O)c1ccccc1 [Comparative Example 14, (R)-3-aminoquinuclidine.dibenzoate] | Immediately |
| N[C@H]1CN2CCC1CC2.O=C(O)/C=C\C(=O)O [Comparative Example 15, (R)-3-aminoquinuclidine.monomaleate] | Gradually |
| N[C@H]1CN2CCC1CC2.N[C@H]1CN2CCC1CC2.N[C@H]1CN2CCC1CC2.O=C(O)CC(O)(CC(=O)O)C(=O)O.O=C(O)CC(O)(CC(=O)O)C(=O)O [Comparative Example 16, (R)-3-aminoquinuclidine.2/3citrate] | Immediately |
| CS(=O)(=O)O.N[C@H]1CN2CCC1CC2 [Comparative Example 17, (R)-3-aminoquinuclidine.monomesylate] | Gradually |
| N[C@H]1CN2CCC1CC2.N[C@H]1CN2CCC1CC2.O=P(O)(O)O.O=P(O)(O)O.O=P(O)(O)O [Example 7, (R)-3-aminoquinuclidine.sesquiphosphate] | Not deliquesce |
| N[C@H]1CN2CCC1CC2.O=S(=O)(O)O [Example 8, (R)-3-aminoquinuclidine.monosulfate] | Not deliquesce |
| N[C@H]1CN2CCC1CC2.O=C(O)/C=C/C(=O)O [Example 9, (R)-3-aminoquinuclidine.monofumarate] | Not deliquesce |
| N[C@H]1CN2CCC1CC2.O=C(O)c1ccc(C(=O)O)cc1 [Example 10, (R)-3-aminoquinuclidine.monoterephthalate] | Not deliquesce |
| N[C@H]1CN2CCC1CC2.O=C(O)C(=O)O [Example 11, (R)-3-aminoquinuclidine.monooxalate] | Not deliquesce |
| Cc1ccc(S(=O)(=O)O)cc1.N[C@H]1CN2CCC1CC2 [Example 12, (R)-3-aminoquinuclidine.mono-p-toluenesulfonate] | Not deliquesce |
| CC1(C)C2CCC1(CS(=O)(=O)O)C(=O)C2.N[C@H]1CN2CCC1CC2 [Example 13, (R)-3-aminoquinuclidine.mono-(−)-10-camphorsulfonate] | Not deliquesce |
| Cl.Cl.N[C@H]1CN2CCC1CC2 [Referential Example 2, (R)-3-aminoquinuclidine.dihydrochloride] | Immediately |

Test: Deliquescence Test (Experimental Example 1, salts of racemic 3-aminoquinuclidine)
Type: physicochemical
Conditions: about 0.5 g allowed to stand for 1 hour, 25 to 27° C., humidity of 76 to 82%, visual evaluation
Method: racemic 3-aminoquinuclidine.dihydrochloride of reagent, and the acid addition salts (about 0.5 g) of racemic 3-aminoquinuclidine obtained in Examples 1 to 6 and Comparative Examples 1 to 9 were allowed to stand for 1 hour, under the condition of 25 to 27° C., and a humidity of 76 to 82%, and a deliquescence was observed by a visual evaluation.

| SMILES | Deliquescence |
| --- | --- |
| Br.Br.NC1CN2CCC1CC2 (racemic) [Comparative Example 1, racemic 3-aminoquinuclidine-dihydrobromide] | Gradually |
| NC1CN2CCC1CC2.O=S(=O)(O)O (racemic) [Comparative Example 2, racemic 3-aminoquinuclidine.monosulfate] | Gradually |
| NC1CN2CCC1CC2.O=[N+]([O-])O.O=[N+]([O-])O (racemic) [Comparative Example 3, racemic 3-aminoquinuclidine.dinitrate] | Gradually |
| CC(=O)O.CC(=O)O.NC1CN2CCC1CC2 (racemic) [Comparative Example 4, racemic 3-aminoquinuclidine.diacetate] | Immediately |
| CCC(=O)O.NC1CN2CCC1CC2 (racemic) [Comparative Example 5, racemic 3-aminoquinuclidine.monopropionate] | Immediately |
| NC1CN2CCC1CC2.O=C(O)c1ccccc1.O=C(O)c1ccccc1 (racemic) [Comparative Example 6, racemic 3-aminoquinuclidine.dibenzoate] | Gradually |
| NC1CN2CCC1CC2.O=C(O)/C=C\C(=O)O (racemic) [Comparative Example 7, racemic 3-aminoquinuclidine.monomaleate] | Gradually |
| NC1CN2CCC1CC2.NC1CN2CCC1CC2.NC1CN2CCC1CC2.O=C(O)CC(O)(CC(=O)O)C(=O)O.O=C(O)CC(O)(CC(=O)O)C(=O)O (racemic) [Comparative Example 8, racemic 3-aminoquinuclidine.2/3 citrate] | Immediately |
| CS(=O)(=O)O.NC1CN2CCC1CC2 (racemic) [Comparative Example 9, racemic 3-aminoquinuclidine.monomesylate] | Gradually |
| NC1CN2CCC1CC2 (racemic) [Example 1, racemic 3-aminoquinuclidine.sesquiphosphate] | Not deliquesce |
| NC1CN2CCC1CC2.O=C(O)/C=C/C(=O)O (racemic) [Example 2, racemic 3-aminoquinuclidine.monofumarate] | Not deliquesce |
| NC1CN2CCC1CC2.O=C(O)c1ccc(C(=O)O)cc1 (racemic) [Example 3, racemic 3-aminoquinuclidine.monoterephthalate] | Not deliquesce |
| NC1CN2CCC1CC2.O=C(O)C(=O)O (racemic) [Example 4, racemic 3-aminoquinuclidine.monooxalate] | Not deliquesce |
| Cc1ccc(S(=O)(=O)O)cc1.NC1CN2CCC1CC2 (racemic) [Example 5, racemic 3-aminoquinuclidine.mono-p-toluenesulfonate] | Not deliquesce |
| CC1(C)C2CCC1(CS(=O)(=O)O)C(=O)C2.NC1CN2CCC1CC2 (racemic) [Example 6, racemic 3-aminoquinuclidine.mono-(±)-10-camphorsulfonate] | Not deliquesce |
| Cl.Cl.NC1CN2CCC1CC2 (racemic) [Reagent, racemic 3-aminoquinuclidine.dihydrochloride] | Immediately |
